In US20260022142A1, “MACROCYCLIC IMMUNOMODULATORS” (Bristol-Myers Squibb Company, priority 2022, published 2026):
Bridge positions count the residues as written; N and C are the ends. Square brackets hold non-standard residues; d marks the D form. Peptide text beside a SMILES is read from it. * marks the point of attachment. ξ: configuration not given here. Bip = N[C@@H](Cc1ccc(-c2ccccc2)cc1)C(=O)O; X13 = N[C@@H](CN*)C(=O)NCCCCCCCCCCC(=O)O; X14 = N[C@H](CN*)C(=O)NCCCCCCCCCCC(=O)O; Phe(3-Me) = Cc1cccc(C[C@H](N)C(=O)O)c1; hhGln = NC(=O)CCCC[C@H](N)C(=O)O; Cha = N[C@@H](CC1CCCCC1)C(=O)O; Cit = NC(=O)NCCC[C@H](N)C(=O)O; Carboxymethyl = O=C(O)C*; Orn = NCCC[C@H](N)C(=O)O; Aun = NCCCCCCCCCCC(=O)O; Dab = NCC[C@H](N)C(=O)O; ξE = NC(CCC(=O)O)C(=O)O; Dap = NC[C@H](N)C(=O)O; AEEA = NCCOCCOCC(=O)O

What follows are molecules tested against T1, PD-1/PD-L1 interaction (PE-labeled human PD-L1-Ig binding to Jurkat cell line over-expressing human PD-1) (Homo sapiens, UniProt Q15116) (assay: Jurkat-PD-1 Cell Binding High-Content Screening Assay (CBA)). Conditions: Jurkat cell line over-expressing human PD-1; PE-labeled PD-L1-Ig 20 nM final; read-out: Jurkat hPD1-PDL1 IC50.
T1 construct: expressed in transfected cells; host or cells: Jurkat
T1 sequence (Q15116 25-288): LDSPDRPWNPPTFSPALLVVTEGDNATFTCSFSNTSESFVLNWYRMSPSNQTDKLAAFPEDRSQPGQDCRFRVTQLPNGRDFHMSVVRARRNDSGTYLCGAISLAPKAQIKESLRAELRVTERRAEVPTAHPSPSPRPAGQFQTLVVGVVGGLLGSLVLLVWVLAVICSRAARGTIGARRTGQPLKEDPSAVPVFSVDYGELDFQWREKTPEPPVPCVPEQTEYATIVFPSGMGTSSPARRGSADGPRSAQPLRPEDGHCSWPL
Assay type: cell-based
In short: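 Human PD-L1-Ig carrying a covalent PE label on its Ig tag serves as the probe, applied at 20 nM final to compound-treated (2 h, 37° C) Jurkat-hPD-1 cells in medium with 10% fetal calf serum. After one hour, fixation and nuclear staining precede high-content image analysis.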

How did the IC50 turn out when `CC(C)C[C@H]1NC(=O)[C@H](CCCN)NC(=O)[C@H](C(C)C)NC(=O)[C@H](Cc2ccc(-c3ccccc3)cc2)NC(=O)[C@H](C(C)C)NC(=O)[C@H](Cc2c[nH]c3ccccc23)NC(=O)[C@H](CC(=O)O)NC(=O)[C@H](Cc2ccc(OCC(=O)O)cc2)NC(=O)[C@H](Cc2ccc(OCC(=O)O)cc2)NC(=O)CSC[C@@H](C(=O)NCCCCCCCCCCC(=O)O)NC(=O)[C@H](CCCNC(=N)N)NC(=O)[C@H](C(C)C)NC(=O)[C@H](CC2CCCCC2)NC(=O)[C@H](CCN)NC1=O` [Compound 2602] was run?
Its IC50 is 18.4 nM.

For `CC(C)C[C@H]1NC(=O)[C@H](CCCN)NC(=O)[C@H](C(C)C)NC(=O)[C@H](Cc2ccc(-c3ccccc3)cc2)NC(=O)[C@H](C(C)C)NC(=O)[C@H](Cc2c[nH]c3ccccc23)NC(=O)[C@H](CC(=O)O)NC(=O)[C@H](Cc2ccc(OCC(=O)O)cc2)NC(=O)[C@H](CN)NC(=O)CSC[C@@H](C(=O)NCCCCCCCCCCC(=O)O)NC(=O)[C@H](CCCCN)NC(=O)[C@H](C(C)C)NC(=O)[C@H](CC2CCCCC2)NC(=O)[C@H](CCN)NC1=O` [Compound 2603] ({CH2CO}-[Dap]Y(Carboxymethyl)DWV[Bip]V[Orn][dL][Dab][Cha]VKC[Aun]-OH; thioether N-14), which IC50 is on record?
Its IC50 is 7.1 nM.

With `Cc1cccc(C[C@@H]2NC(=O)[C@H](CC(=O)O)NC(=O)[C@H](Cc3ccc(OCC(=O)O)cc3)NC(=O)[C@H](CN)NC(=O)CSC[C@@H](C(=O)NCCCCCCCCCCC(=O)O)NC(=O)[C@H](CN)NC(=O)[C@H](C(C)C)NC(=O)[C@H](CC3CCCCC3)NC(=O)[C@H](CCN)NC(=O)[C@@H](CC(C)C)NC(=O)[C@H](CCCN)NC(=O)[C@H](C(C)C)NC(=O)[C@H](Cc3ccc(-c4ccccc4)cc3)NC(=O)[C@H](C(C)C)NC2=O)c1` [Compound 2604] ({CH2CO}-[Dap]Y(Carboxymethyl)D[Phe(3-Me)]V[Bip]V[Orn][dL][Dab][Cha]V[Dap]C[Aun]-OH; thioether N-14) as the molecule, how does the IC50 read?
Its IC50 is 13.2 nM.

With `Cc1cccc(C[C@@H]2NC(=O)[C@H](CC(=O)O)NC(=O)[C@H](Cc3ccc(OCC(=O)O)cc3)NC(=O)[C@H](CN)NC(=O)CSC[C@@H](C(=O)NCCCCCCCCCCC(=O)O)NC(=O)[C@H](CCCN)NC(=O)[C@H](C(C)C)NC(=O)[C@H](CC3CCCCC3)NC(=O)[C@H](CCN)NC(=O)[C@@H](CC(C)C)NC(=O)[C@H](CCCN)NC(=O)[C@H](C(C)C)NC(=O)[C@H](Cc3ccc(-c4ccccc4)cc3)NC(=O)[C@H](C(C)C)NC2=O)c1` [Compound 2605] ({CH2CO}-[Dap]Y(Carboxymethyl)D[Phe(3-Me)]V[Bip]V[Orn][dL][Dab][Cha]V[Orn]C[Aun]-OH; thioether N-14) as the molecule, how does the IC50 read?
The IC50 was 5.6 nM.

How did the IC50 turn out when `CC(C)C[C@H]1NC(=O)[C@H](CCCN)NC(=O)[C@H](C(C)C)NC(=O)[C@H](Cc2ccc(-c3ccccc3)cc2)NC(=O)[C@H](C(C)C)NC(=O)[C@H](Cc2c[nH]c3ccccc23)NC(=O)[C@H](CC(=O)O)NC(=O)[C@H](Cc2ccc(OCC(=O)O)cc2)NC(=O)[C@H](Cc2ccc(OCC(=O)O)cc2)NC(=O)CSC[C@@H](C(=O)NCCCCCCCCCCC(=O)O)NC(=O)[C@H](CCCN)NC(=O)[C@H](C(C)C)NC(=O)[C@H](CC2CCCCC2)NC(=O)[C@H](CCN)NC1=O` [Compound 2607] ({CH2CO}-Y(Carboxymethyl)Y(Carboxymethyl)DWV[Bip]V[Orn][dL][Dab][Cha]V[Orn]C[Aun]-OH; thioether N-14) was run?
Its IC50 is 29.7 nM.

Which IC50 does the source give for `CC(C)C[C@H]1NC(=O)[C@H](CCCN)NC(=O)[C@H](C(C)C)NC(=O)[C@H](Cc2ccc(-c3ccccc3)cc2)NC(=O)[C@H](C(C)C)NC(=O)[C@H](Cc2c[nH]c3ccccc23)NC(=O)[C@H](CC(=O)O)NC(=O)[C@H](Cc2ccc(OCC(=O)O)cc2)NC(=O)[C@H](Cc2ccc(OCC(=O)O)cc2)NC(=O)CSC[C@@H](C(=O)NCCCCCCCCCCC(=O)O)NC(=O)[C@H](CN)NC(=O)[C@H](C(C)C)NC(=O)[C@H](CC2CCCCC2)NC(=O)[C@H](CCN)NC1=O` [Compound 2608] ({CH2CO}-Y(Carboxymethyl)Y(Carboxymethyl)DWV[Bip]V[Orn][dL][Dab][Cha]V[Dap]C[Aun]-OH; thioether N-14) here?
The IC50 was 31.7 nM.

How did the IC50 turn out when `Cc1cccc(C[C@@H]2NC(=O)[C@H](CC(=O)O)NC(=O)[C@H](Cc3ccc(OCC(=O)O)cc3)NC(=O)[C@H](CN)NC(=O)CSC[C@@H](C(=O)N[C@@H](C)C(=O)NC(CCC(=O)O)C(=O)NCCOCCOCC(=O)NCCCCCCCCCCC(=O)O)NC(=O)[C@H](CCCN)NC(=O)[C@H](C(C)C)NC(=O)[C@H](CC3CCCCC3)NC(=O)[C@H](CCN)NC(=O)[C@@H](CC(C)C)NC(=O)[C@H](CCCN)NC(=O)[C@H](CCCCC(N)=O)NC(=O)[C@H](Cc3ccc(-c4ccccc4)cc3)NC(=O)[C@H](C(C)C)NC2=O)c1` (stereo partly drawn) [Compound 2615] ({CH2CO}-[Dap]Y(Carboxymethyl)D[Phe(3-Me)]V[Bip][hhGln][Orn][dL][Dab][Cha]V[Orn]CA[ξE][AEEA][Aun]-OH; thioether N-14) was run?
The IC50 was 8.5 nM.

For `Cc1cccc(C[C@@H]2NC(=O)[C@H](CC(=O)O)NC(=O)[C@H](Cc3ccc(OCC(=O)O)cc3)NC(=O)[C@H](CN)NC(=O)CSC[C@@H](C(=O)N[C@@H](C)C(=O)NC(CCC(=O)O)C(=O)NCCOCCOCC(=O)NCCCCCCCCCCC(=O)O)NC(=O)[C@H](CN)NC(=O)[C@H](C(C)C)NC(=O)[C@H](CC3CCCCC3)NC(=O)[C@H](CCN)NC(=O)[C@@H](CC(C)C)NC(=O)[C@H](CCCN)NC(=O)[C@H](CCCNC(N)=O)NC(=O)[C@H](Cc3ccc(-c4ccccc4)cc3)NC(=O)[C@H](C(C)C)NC2=O)c1` (stereo partly drawn) [Compound 2616] ({CH2CO}-[Dap]Y(Carboxymethyl)D[Phe(3-Me)]V[Bip][Cit][Orn][dL][Dab][Cha]V[Dap]CA[ξE][AEEA][Aun]-OH; thioether N-14), which IC50 is on record?
Its IC50 is 16.1 nM.

Which IC50 does the source give for `Cc1cccc(C[C@@H]2NC(=O)[C@H](CC(=O)O)NC(=O)[C@H](Cc3ccc(OCC(=O)O)cc3)NC(=O)[C@H](CN)NC(=O)CSC[C@@H](C(=O)N[C@@H](C)C(=O)N[C@@H](CCC(=O)O)C(=O)NCCCCCCCCCCC(=O)O)NC(=O)[C@H](CCCN)NC(=O)[C@H](C(C)C)NC(=O)[C@H](CC3CCCCC3)NC(=O)[C@H](CCN)NC(=O)[C@@H](CC(C)C)NC(=O)[C@H](CCCN)NC(=O)[C@H](CCCNC(N)=O)NC(=O)[C@H](Cc3ccc(-c4ccccc4)cc3)NC(=O)[C@H](C(C)C)NC2=O)c1` [Compound 2617] ({CH2CO}-[Dap]Y(Carboxymethyl)D[Phe(3-Me)]V[Bip][Cit][Orn][dL][Dab][Cha]V[Orn]CAE[Aun]-OH; thioether N-14) here?
The IC50 was 6.3 nM.

For `Cc1cccc(C[C@@H]2NC(=O)[C@H](CC(=O)O)NC(=O)[C@H](Cc3ccc(OCC(=O)O)cc3)NC(=O)[C@H](CN)NC(=O)CSC[C@@H](C(=O)N[C@@H](C)C(=O)N[C@@H](CCC(=O)O)C(=O)NCCCCCCCCCCC(=O)O)NC(=O)[C@H](CN)NC(=O)[C@H](C(C)C)NC(=O)[C@H](CC3CCCCC3)NC(=O)[C@H](CCN)NC(=O)[C@@H](CC(C)C)NC(=O)[C@H](CCCN)NC(=O)[C@H](CCCNC(N)=O)NC(=O)[C@H](Cc3ccc(-c4ccccc4)cc3)NC(=O)[C@H](C(C)C)NC2=O)c1` [Compound 2618] ({CH2CO}-[Dap]Y(Carboxymethyl)D[Phe(3-Me)]V[Bip][Cit][Orn][dL][Dab][Cha]V[Dap]CAE[Aun]-OH; thioether N-14), which IC50 is on record?
Its IC50 is 12.5 nM.

For `Cc1cccc(C[C@@H]2NC(=O)[C@H](CC(=O)O)NC(=O)[C@H](Cc3ccc(OCC(=O)O)cc3)NC(=O)[C@H](CN)NC(=O)CSC[C@@H](C(=O)N[C@@H](C)CC(=O)NCCCCCCCCCCC(=O)O)NC(=O)[C@H]([C@@H](C)O)NC(=O)[C@H](C(C)C)NC(=O)[C@H](CC3CCCCC3)NC(=O)[C@H](CCN)NC(=O)[C@@H](CC(C)C)NC(=O)[C@H](CCCN)NC(=O)[C@H](CCCNC(N)=O)NC(=O)[C@H](Cc3ccc(-c4ccccc4)cc3)NC(=O)[C@H](C(C)C)NC2=O)c1` [Compound 2619], which IC50 is on record?
The IC50 was 24.4 nM.

With `Cc1cccc(C[C@@H]2NC(=O)[C@H](CC(=O)O)NC(=O)[C@H](Cc3ccc(OCC(=O)O)cc3)NC(=O)[C@H](CN)NC(=O)CSC[C@@H](C(=O)N[C@H](C)CC(=O)NCCCCCCCCCCC(=O)O)NC(=O)[C@H]([C@@H](C)O)NC(=O)[C@H](C(C)C)NC(=O)[C@H](CC3CCCCC3)NC(=O)[C@H](CCN)NC(=O)[C@@H](CC(C)C)NC(=O)[C@H](CCCN)NC(=O)[C@H](CCCNC(N)=O)NC(=O)[C@H](Cc3ccc(-c4ccccc4)cc3)NC(=O)[C@H](C(C)C)NC2=O)c1` [Compound 2620] as the molecule, how does the IC50 read?
Its IC50 is 28.1 nM.

Which IC50 does the source give for `Cc1cccc(C[C@@H]2NC(=O)[C@H](CC(=O)O)NC(=O)[C@H](Cc3ccc(OCC(=O)O)cc3)NC(=O)[C@H](CN)NC(=O)CSC[C@@H](C(=O)NC[C@H](N)C(=O)NCCCCCCCCCCC(=O)O)NC(=O)[C@H]([C@@H](C)O)NC(=O)[C@H](C(C)C)NC(=O)[C@H](CC3CCCCC3)NC(=O)[C@H](CCN)NC(=O)[C@@H](CC(C)C)NC(=O)[C@H](CCCN)NC(=O)[C@H](CCCNC(N)=O)NC(=O)[C@H](Cc3ccc(-c4ccccc4)cc3)NC(=O)[C@H](C(C)C)NC2=O)c1` [Compound 2621] ({CH2CO}-[Dap]Y(Carboxymethyl)D[Phe(3-Me)]V[Bip][Cit][Orn][dL][Dab][Cha]VTC-X13; thioether N-14) here?
Its IC50 is 16.8 nM.

Which IC50 does the source give for `Cc1cccc(C[C@@H]2NC(=O)[C@H](CC(=O)O)NC(=O)[C@H](Cc3ccc(OCC(=O)O)cc3)NC(=O)[C@H](CN)NC(=O)CSC[C@@H](C(=O)NC[C@@H](N)C(=O)NCCCCCCCCCCC(=O)O)NC(=O)[C@H]([C@@H](C)O)NC(=O)[C@H](C(C)C)NC(=O)[C@H](CC3CCCCC3)NC(=O)[C@H](CCN)NC(=O)[C@@H](CC(C)C)NC(=O)[C@H](CCCN)NC(=O)[C@H](CCCNC(N)=O)NC(=O)[C@H](Cc3ccc(-c4ccccc4)cc3)NC(=O)[C@H](C(C)C)NC2=O)c1` [Compound 2622] ({CH2CO}-[Dap]Y(Carboxymethyl)D[Phe(3-Me)]V[Bip][Cit][Orn][dL][Dab][Cha]VTC-X14; thioether N-14) here?
The IC50 was 30.6 nM.
